Experimental data taken from US20200405696A1, “INHIBITORS OF INDOLEAMINE 2,3-DIOXYGENASE AND/OR TRYPTOPHAN 2,3-DIOXYGENASE” (IDORSIA PHARMACEUTICALS LTD, priority 2018, published 2020).

Columns and labels:
[1] = biological target: T1, Recombinant full-length human IDO1 (Homo sapiens, UniProt P14902); experiment: IDO1 enzymatic assay (NFK quantified by LCMS); assay type: biochemical; settings: 2 nM enzyme, 5 μM L-tryptophan, pH6.5, 30 minutes pre-incubation at RT; mean values when measured multiple times; read-out: hIDO activity (IC50 in nM)
T1 construct: Recombinant full-length human IDO1 with a N-terminal hexahistidine tag; hexahistidine (His6) (N); made in house; host or cells: E. coli
T1 sequence (P14902 whole entry): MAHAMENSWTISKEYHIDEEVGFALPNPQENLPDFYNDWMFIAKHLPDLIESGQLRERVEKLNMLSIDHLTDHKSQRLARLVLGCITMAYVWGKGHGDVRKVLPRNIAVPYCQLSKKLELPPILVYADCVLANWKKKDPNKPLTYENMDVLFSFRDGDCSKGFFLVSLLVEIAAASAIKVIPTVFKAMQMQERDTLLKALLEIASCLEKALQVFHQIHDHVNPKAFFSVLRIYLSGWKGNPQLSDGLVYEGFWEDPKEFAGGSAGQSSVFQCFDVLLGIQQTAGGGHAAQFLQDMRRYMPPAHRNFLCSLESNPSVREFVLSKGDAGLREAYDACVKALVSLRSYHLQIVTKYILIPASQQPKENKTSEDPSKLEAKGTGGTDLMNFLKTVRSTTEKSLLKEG
Method in brief: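 His-tagged human IDO1 (2 nM) in pH 6.5 phosphate buffer with ascorbate, methylene blue and catalase was preincubated with compound (10 μM–0.5 nM, 0.6% DMSO) for 30 min at RT. The reaction then ran with 5 μM L-Trp for 30 min. NFK was measured by LCMS against a d5-Trp standard, and IC50 was obtained by four-parameter fit.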

[2] = biological target: T2, Recombinant human TDO comprising amino acids 19-407 (Homo sapiens, UniProt P48775); experiment: TDO2 enzymatic assay (NFK quantified by LCMS); assay type: biochemical; settings: 15 nM enzyme, 200 μM L-tryptophan, pH7, 30 minutes pre-incubation at RT; mean values when measured multiple times; read-out: hTDO activity (IC50 in nM)
T2 construct: Recombinant human TDO comprising amino acids 19-407 with a N-terminal hexahistidine tag; hexahistidine (His6) (N); made in house; host or cells: E. coli
T2 sequence (P48775 19-406 limits assumed): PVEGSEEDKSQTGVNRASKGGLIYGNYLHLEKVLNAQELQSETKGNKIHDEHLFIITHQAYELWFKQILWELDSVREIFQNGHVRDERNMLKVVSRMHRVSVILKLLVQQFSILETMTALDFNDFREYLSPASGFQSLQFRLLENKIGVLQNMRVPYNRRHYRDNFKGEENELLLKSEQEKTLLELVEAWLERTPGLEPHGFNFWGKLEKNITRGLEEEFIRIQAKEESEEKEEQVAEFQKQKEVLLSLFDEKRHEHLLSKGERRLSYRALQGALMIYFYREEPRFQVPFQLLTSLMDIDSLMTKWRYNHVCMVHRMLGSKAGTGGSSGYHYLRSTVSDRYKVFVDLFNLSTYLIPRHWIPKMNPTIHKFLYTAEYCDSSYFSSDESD
Method in brief: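 NFK formed over 30 min at RT from 200 μM L-tryptophan was measured by LCMS, normalized to d5-tryptophan, after compound (0.5 nM–10 μM, duplicates, 0.6% DMSO) was preincubated 30 min with 15 nM recombinant His-tagged TDO 19-407 in phosphate buffer pH 7. IC50 from four-parameter logistic fit; repeats averaged.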

| SMILES | IC50 [1] | IC50 [2] |
| --- | --- | --- |
| OC(c1ccc(-c2ccccc2)cc1)c1c(C2CC2)sc2cncn12 (racemic) [Example 152, rac-Biphenyl-4-yl-(2-cyclopropyl-imidazo[5,1-b]thiazol-3-yl)-methanol] | 184 nM | > 10200 nM |
| OC(c1cn(-c2ccncc2)nn1)c1c(C2CC2)sc2cncn12 (racemic) [Example 30, rac-(2-Cyclopropyl-imidazo[5,1-b]thiazol-3-yl)-(1-pyridin-4-yl-1H-[1,2,3]triazol-4-yl)-methanol] | 63.2 nM | > 10200 nM |
| C=CCNC(=O)c1ccc(-n2cc(C(O)c3c(CC)sc4cncn34)nn2)cc1 (racemic) [Example 129, rac-N-Allyl-4-{4-[(2-ethyl-imidazo[5,1-b]thiazol-3-yl)-hydroxy-methyl]-[1,2,3]triazol-1-yl}-benzamide] | 9.29 nM | 9780 nM |
| CNC(=O)c1ccc(-n2cc(C(O)c3c(C4CC4)sc4cncn34)nn2)cc1 (racemic) [Example 182, rac-4-{4-[(2-Cyclopropyl-imidazo[5,1-b]thiazol-3-yl)-hydroxy-methyl]-[1,2,3]triazol-1-yl}-N-methyl-benzamide] | 26 nM | > 10200 nM |
| O=C(NCCO)c1ccc(-n2cc(C(O)c3c(C4CC4)sc4cncn34)nn2)cc1 (racemic) [Example 186, rac-4-{4-[(2-Cyclopropyl-imidazo[5,1-b]thiazol-3-yl)-hydroxy-methyl]-[1,2,3]triazol-1-yl}-N-(2-hydroxy-ethyl)-benzamide] | 17.3 nM | > 10200 nM |
| COc1ccc(-n2nnc(C(O)c3c(C4CC4)sc4cncn34)c2C)c(C)c1 (racemic) [Example 326, rac-(2-Cyclopropyl-imidazo[5,1-b]thiazol-3-yl)-[1-(4-methoxy-2-methyl-phenyl)-5-methyl-1H-[1,2,3]triazol-4-yl]-methanol] | 16.9 nM | 9520 nM |
| OCC1(c2ccc(-n3cc(C(O)c4c(C5CC5)sc5cncn45)nn3)cc2)CC1 (racemic) [Example 40, rac-(2-Cyclopropyl-imidazo[5,1-b]thiazol-3-yl)-{1-[4-(1-hydroxymethyl-cyclopropyl)-phenyl]-1H-[1,2,3]triazol-4-yl}-methanol] | 68.3 nM | > 10200 nM |
| COc1ccc(-n2cc(C(O)c3c(C4CC4)sc4cncn34)nn2)cc1O (racemic) [Example 216, rac-5-{4-[(2-Cyclopropyl-imidazo[5,1-b]thiazol-3-yl)-hydroxy-methyl]-[1,2,3]triazol-1-yl}-2-methoxy-phenol] | 29.1 nM | > 10200 nM |
| Cc1sc2cncn2c1C(O)c1cn(-c2cccc(C#N)c2)nn1 (racemic) [Example 60, rac-3-{4-[Hydroxy-(2-methyl-imidazo[5,1-b]thiazol-3-yl)-methyl]-[1,2,3]triazol-1-yl}-benzonitrile] | 294 nM | > 10200 nM |
| OC(c1cn(-c2cnc(OC3CCC3)nc2)nn1)c1c(C2CC2)sc2cncn12 (racemic) [Example 83, rac-[1-(2-Cyclobutoxy-pyrimidin-5-yl)-1H-[1,2,3]triazol-4-yl]-(2-cyclopropyl-imidazo[5,1-b]thiazol-3-yl)-methanol] | 10.9 nM | > 10200 nM |
| OC(c1cn(Cc2ccccc2)nn1)c1c(C2CC2)sc2cncn12 (racemic) [Example 1, rac-(1-Benzyl-1H-[1,2,3]triazol-4-yl)-(2-cyclopropyl-imidazo[5,1-b]thiazol-3-yl)-methanol] | 90.3 nM | > 10200 nM |
| CC(C)(O)COc1ccc(-n2cc([C@H](O)c3c(C4CC4)sc4cncn34)nn2)cc1 [Example 139a, 1-(4-{4-[(R)-(2-Cyclopropyl-imidazo[5,1-b]thiazol-3-yl)-hydroxy-methyl]-[1,2,3]triazol-1-yl}-phenoxy)-2-methyl-propan-2-ol] | 5.44 nM | > 10200 nM |

The remaining compounds from weak to strong by IC50 [1], led by results:

| IC50 [1] | IC50 [2] | SMILES |
| --- | --- | --- |
| 795 nM | > 10200 nM | Cc1sc2cncn2c1C(O)c1cn(Cc2ccccc2)nn1 (racemic) [Example 62, rac-(1-Benzyl-1H-[1,2,3]triazol-4-yl)-(2-methyl-imidazo[5,1-b]thiazol-3-yl)-methanol] |
| 164 nM | > 10200 nM | COc1ccc(-n2cc(C(O)c3c(C4CC4)sc4cncn34)cn2)cn1 (racemic) [Example 223, rac-(2-Cyclopropyl-imidazo[5,1-b]thiazol-3-yl)-[1-(6-methoxy-pyridin-3-yl)-1H-pyrazol-4-yl]-methanol] |
| 108 nM | > 10200 nM | CCc1sc2cncn2c1C(O)c1cn(-c2ccc(C(=O)N(C)C)cc2)nn1 (racemic) [Example 114, rac-4-{4-[(2-Ethyl-imidazo[5,1-b]thiazol-3-yl)-hydroxy-methyl]-[1,2,3]triazol-1-yl}-N,N-dimethyl-benzamide] |
| 71.5 nM | > 10200 nM | COc1ccc(-n2cc(C(O)c3c(/C=C/C4CC4)sc4cncn34)nn2)cc1 (racemic) [Example 270, rac-[2-((E)-2-Cyclopropyl-vinyl)-imidazo[5,1-b]thiazol-3-yl]-[1-(4-methoxy-phenyl)-1H-[1,2,3]triazol-4-yl]-methanol] |
| 37.1 nM | > 10200 nM | CCc1sc2cncn2c1C(O)c1cn(-c2cccc(C#N)c2)nn1 (racemic) [Example 51, rac-3-{4-[(2-Ethyl-imidazo[5,1-b]thiazol-3-yl)-hydroxy-methyl]-[1,2,3]triazol-1-yl}-benzonitrile] |
| 32 nM | 7720 nM | CCc1sc2cncn2c1C(O)c1cn(-c2ccc(NC(=O)N3CCOCC3)cc2)nn1 (racemic) [Example 121, rac-Morpholine-4-carboxylic acid (4-{4-[(2-ethyl-imidazo[5,1-b]thiazol-3-yl)-hydroxy-methyl]-[1,2,3]triazol-1-yl}-phenyl)-amide] |
| 16.5 nM | > 10200 nM | OCCOCCOc1ccc(-n2cc(C(O)c3c(C4CC4)sc4cncn34)nn2)cc1 (racemic) [Example 138, rac-2-[2-(4-{4-[(2-Cyclopropyl-imidazo[5,1-b]thiazol-3-yl)-hydroxy-methyl]-[1,2,3]triazol-1-yl}-phenoxy)-ethoxy]-ethanol] |
| 14.1 nM | > 10200 nM | CCOc1ccc(-n2nnc(C(O)c3c(C4CC4)sc4cncn34)c2C)cc1Cl (racemic) [Example 296, rac-[1-(3-Chloro-4-ethoxy-phenyl)-5-methyl-1H-[1,2,3]triazol-4-yl]-(2-cyclopropyl-imidazo[5,1-b]thiazol-3-yl)-methanol] |
| 13.7 nM | > 10200 nM | CC1(c2sc3cncn3c2C(O)c2cn(-c3ccc(OCCCO)c(Cl)c3)nn2)CC1 (racemic) [Example 313, rac-3-[2-Chloro-4-(4-{hydroxy-[2-(1-methyl-cyclopropyl)-imidazo[5,1-b]thiazol-3-yl]-methyl}-[1,2,3]triazol-1-yl)-phenoxy]-propan-1-ol] |
| 7.31 nM | > 10200 nM | CC(C)(O)COc1ccc(-n2cc([C@H](O)c3c(C4CC4)sc4cncn34)nn2)cc1Cl [Example 283, 1-(2-Chloro-4-{4-[(R)-(2-cyclopropyl-imidazo[5,1-b]thiazol-3-yl)-hydroxy-methyl]-[1,2,3]triazol-1-yl}-phenoxy)-2-methyl-propan-2-ol] |
| 4.55 nM | > 10200 nM | O[C@@H](c1cn(-c2ccc(OCC3CCOCC3)cc2)nn1)c1c(C2CC2)sc2cncn12 [Example 87a, (R)-(2-Cyclopropyl-imidazo[5,1-b]thiazol-3-yl)-{1-[4-(tetrahydro-pyran-4-ylmethoxy)-phenyl]-1H-[1,2,3]triazol-4-yl}-methanol] |
